Entries after “also recorded” stand apart in the source; their conditions may differ. One block for each molecule: values may come before it.
Tests used:
LRS-RagD interaction = LRS-RagD interaction (Homo sapiens, UniProt Q9P2J5); assay: ELISA of LRS-RagD interaction; format: binding
Description: His-tagged human LRS proteins were diluted in carbonate buffer (100 mM, pH 9.6) to the concentration of 0.5 ng μl^−1. […] Protein from each well was removed and washed three times with PBS mixed with 0.05% Tweed® 20 (PBST), subjected to blocking with PBS containing 5% bovine serum albumin (BSA) for 2 hours. Each well was washed with PBST, followed by the treatment of a compound and GST-tagged human RagD protein simultaneously for 3 hours. GST protein itself was used as a negative control. Each well was treated with GST antibody diluted in PBST and incubated at room temperature for 1 h. After washing with PBST, the HRP-conjugated anti-horse IgG secondary antibody was incubated at room temperature for 1 h. TMB was added to each well for colorimetric development. […] To stop the chemical reaction, the treatment with 1 m H3PO4 was done. Finally, absorbance at 450 nm were measured.

mTORC1 [1] = assay: Western blotting, mTORC1 signalling pathway in HEK293T cells; format: cell-based; details: for amount of phospho-T389 S6K1 / phosphorylation suppression of S6K1 by western blotting: 20 μM; for phosphorylation suppression of S6K1 by western blotting: phospho-T389 S6K1 relative to DMSO
Description: HEK293T cell was cultured in Dulbecco modified eagle medium (DMEM) with 10% (v/v) fetal bovine serum (FBS) and 1% (v/v) antibiotic-antimycotic solution. […] The cells were cultured in 100-mm culture dish in an incubator at 37° C., in 5% CO2.
Cells were lysed with Radio-ImmunoPrecipitation Assay (RIPA) buffer (50 mM Tris, pH 7.8, 150 mM NaCl, 0.5% deoxycholate, 1% IGEPAL CA-630, protease inhibitor cocktail, and phosphatase inhibitors). Protein was obtained by transferring supernatant after centrifugation at 15000 rpm for 20 min. Protein concentration was measured with Micro BCA™ protein assay kit. Overall protein sampling procedure was done at 4° C. Prepared protein samples were analyzed with SDS-PAGE. Protein after electrophoresis was transferred into nitrocellulose membrane. Membrane was blocked with TBST mixed with 2% BSA over at least 1 h at r.t. Primary antibodies were incubated overnight at 4° C. […] After washing with TBST, HRP-labeled anti-rabbit IgG secondary antibody was treated at room temperature for 1 h. After washing with TBST, developing by Amersham ECL prime solution was done. Chemiluminescent signal was imaged by ChemiDoc™ MP imaging system.

AMPK signaling pathways = assay: Western blotting, phospho-T172 AMPKα in HEK293T cells; format: cell-based
Description: (§1) HEK293T cell was cultured in Dulbecco modified eagle medium (DMEM) with 10% (v/v) fetal bovine serum (FBS) and 1% (v/v) antibiotic-antimycotic solution. HeLa, DU145, and Ca Ski cells were cultured in RPMI 1640 medium with 10% (v/v) FBS and 1% (v/v) antibiotic-antimycotic solution. The cells were cultured in 100-mm culture dish in an incubator at 37° C., in 5% CO2.
(§2) Cells were lysed with Radio-ImmunoPrecipitation Assay (RIPA) buffer (50 mM Tris, pH 7.8, 150 mM NaCl, 0.5% deoxycholate, 1% IGEPAL CA-630, protease inhibitor cocktail, and phosphatase inhibitors). Protein was obtained by transferring supernatant after centrifugation at 15000 rpm for 20 min. Protein concentration was measured with Micro BCA™ protein assay kit. Overall protein sampling procedure was done at 4° C. Prepared protein samples were analyzed with SDS-PAGE. Protein after electrophoresis was transferred into nitrocellulose membrane. Membrane was blocked with TBST mixed with 2% BSA over at least 1 h at r.t. Primary antibodies were incubated overnight at 4° C. […]

[2] = test system: mTORC2 signaling pathways; assay: Western blotting, phospho-S473 Akt in HEK293T cells; format: cell-based
Description: as §1, §2

Human LRS proteins = target: T1, Human LRS proteins (Homo sapiens, UniProt Q9P2J5); assay: Surface plasmon resonance (SPR) binding to LRS
T1 construct: His
T1 sequence (Q9P2J5 whole entry): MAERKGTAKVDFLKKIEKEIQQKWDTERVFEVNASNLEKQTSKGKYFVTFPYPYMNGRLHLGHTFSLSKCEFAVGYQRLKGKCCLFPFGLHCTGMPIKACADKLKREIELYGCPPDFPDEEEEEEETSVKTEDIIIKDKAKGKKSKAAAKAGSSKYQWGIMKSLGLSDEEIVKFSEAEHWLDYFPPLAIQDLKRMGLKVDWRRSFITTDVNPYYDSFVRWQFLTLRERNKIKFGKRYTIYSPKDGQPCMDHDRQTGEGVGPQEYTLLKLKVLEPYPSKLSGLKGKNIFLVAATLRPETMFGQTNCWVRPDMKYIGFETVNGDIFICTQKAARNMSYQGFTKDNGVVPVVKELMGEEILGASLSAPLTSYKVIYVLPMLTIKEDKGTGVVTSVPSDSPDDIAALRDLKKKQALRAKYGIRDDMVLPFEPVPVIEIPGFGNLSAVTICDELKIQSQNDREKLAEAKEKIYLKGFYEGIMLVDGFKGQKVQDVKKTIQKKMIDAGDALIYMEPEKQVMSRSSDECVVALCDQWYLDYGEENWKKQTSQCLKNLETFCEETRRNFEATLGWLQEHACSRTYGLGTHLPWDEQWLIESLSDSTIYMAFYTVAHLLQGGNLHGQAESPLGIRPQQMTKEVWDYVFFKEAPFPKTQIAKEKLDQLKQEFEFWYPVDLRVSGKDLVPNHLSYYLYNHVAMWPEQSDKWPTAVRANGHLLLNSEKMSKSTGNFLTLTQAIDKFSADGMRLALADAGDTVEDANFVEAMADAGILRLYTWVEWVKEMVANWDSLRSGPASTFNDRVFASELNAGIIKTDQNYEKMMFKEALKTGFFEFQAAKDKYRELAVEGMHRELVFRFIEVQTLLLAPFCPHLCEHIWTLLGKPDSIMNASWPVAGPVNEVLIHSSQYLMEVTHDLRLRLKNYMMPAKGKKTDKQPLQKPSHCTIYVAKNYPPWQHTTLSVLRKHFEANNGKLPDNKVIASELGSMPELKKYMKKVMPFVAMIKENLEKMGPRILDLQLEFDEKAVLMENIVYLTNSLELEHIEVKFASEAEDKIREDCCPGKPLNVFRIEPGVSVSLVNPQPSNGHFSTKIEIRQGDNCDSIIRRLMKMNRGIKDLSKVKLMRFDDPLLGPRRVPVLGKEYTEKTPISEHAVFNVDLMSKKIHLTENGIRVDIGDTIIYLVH
Description: The dissociation […] constant (KD) toward His-LRS proteins was determined by using SPR instrument (Biacore T100) at the national center for inter-university research facilities (NCIRF) in Seoul National University. The carboxyl group on the surface of CMS chip was able to be replaced with protein by forming reactive succinimide ester with 1-ethyl-3-(3-dimethylaminopropyl)-carbodiimide (EDC) and N-hydroxysuccinimide (NHS). Human LRS proteins (1.5×PBS, pH 7.3) were immobilized on flow cell 2 (imed RU; 12000) by leading to amide bond formation with NHS ester. The residual NHS ester was quenched with 1 M ethanolamine-HCl (pH 8.0). Amide bond formation alone, without any protein t, was performed on flow cell 1 as a control. The immobilization process was proceeded on PBS buffer. After the immobilization of hLRS, compounds were flowed for 60 s at a flow rate of 20 μl min^−1 in various concentrations from 1 μM to […] was then flowed at the same flow rate for 200 s for dissociation of compounds. As a running buffer, 1×PBS (pH 7.3) containing 3% DMSO and 0.005% P2O was used. The experiment was performed at 25° C. Data analysis was done by using Biacore T100 Evaluation software. […] The dissociation constant (KD) was calculated by fitting to the 1:1 binding model.

[3] = test system: HeLa human cervical cancer cells; assay: Western blot analysis of LC3 and p62 (autophagy) in HeLa cells; format: cell-based; details: for LC3 I/LC3 II ratio / p62 level: 6 h, 200 nM Rap, 10 nM Baf, 20 μM 21f, compared with DMSO
Description: as §1
Cells were lysed with Radio-ImmunoPrecipitation Assay (RIPA) buffer (50 mM Tris, pH 7.8, 150 mM NaCl, 0.5% deoxycholate, 1% IGEPAL CA-630, protease inhibitor cocktail, and phosphatase inhibitors). Protein was obtained by transferring supernatant after centrifugation at 15000 rpm for 20 min. Protein concentration was measured with Micro BCA™ protein assay kit. Overall protein sampling procedure was done at 4° C. Prepared protein samples were analyzed with SDS-PAGE. Protein after electrophoresis was transferred into nitrocellulose membrane. Membrane was blocked with TBST mixed with 2% BSA over at least 1 h at r.t. Primary antibodies were incubated overnight at 4° C. The treatment concentration was as follows: Anti-LC3B (ab51520); 1:1000, anti-S6K1 (ab32359); 1:1000, anti-phospho-T389 S6K1 (ab2571); 1:800, anti-p62 (CST 5114); 1:1000, anti-glyceraldehyde-3-phosphate dehydrogenase (GAPDH) (CST 2118); 1:1000, anti-phospho-S65 4E-BP1 (CST 9451); 1:1000, anti-phospho-S757 ULK1 (CST 6888); 1:800, anti-phospho-S473 Akt (CST 4058); 1:1000, anti-phospho-T172 AMPKα (CST 2531). After washing with TBST, HRP-labeled anti-rabbit IgG secondary antibody was treated at room temperature for 1 h. After washing with TBST, developing by Amersham ECL prime solution was done. Chemiluminescent signal was imaged by ChemiDoc™ MP imaging system.

HeLa cells = assay: mCherry-GFP-LC3 puncta imaging; format: cell-based, human; details: 6 h, 200 nM Rap, 10 nM Baf, 20 μM 21f
Description: HeLa cells were seeded in chambered coverglass from Nunc and incubated for 24 h. mCherry-GFP-LC3 plasmid was transfected to the cells using Lipofectamine™ 2000 solution. Transfection was proceeded according to manufacturer's protocol.
DeltaVision Elite imaging system was used for the imaging of mCherry-GFP-LC3 transfected HeLa cell. For live-cell imaging, chamber was maintained at 37° C. and in 5% CO2. […] The wavelength range of the used filters is as follows: mCherry (Excitation: 575/25 nm, Emission: 625/45 nm); GFP (Excitation: 475/28 nm, Emission: 525/48 nm). Images were processed and analyzed with SoftWorks deconvolution software.

HEK293T cells = assay: Cell proliferation assay (BrdU); format: cell-based; details: 5 μM, in the presence of Leu
Description: HEK293T cells were seeded in 96-well plate from CORNING. 24 h after seeding, the compound diluted with DMEM at 5 μM of final concentration was treated in cells while leucine-free DMEM was treated in cells as a control. Cell division assay was done with WSTs assay and BrdU colorimetric kit, following the manufacturer's protocol.

mTORC1 [4] = assay: Western blotting, mTORC1 signalling in Ca Ski cells; format: cell-based
Description: as §1, §2

mTORC1 [5] = assay: Western blotting, mTORC1 signalling in DU145 cells; format: cell-based
Description: as §1, §2

[6] = HEK293T cells, 20, 10, 5 and 1 μM, 3 h

Chain of LRS-RagD interaction (Q9P2J5 whole entry): as above

SMILES: CN(Cc1ccccc1)c1ncnc2c1CN1C[C@@H]1CN2Cc1ccccc1 (stereo partly drawn) [Compound 20f]
dose-dependent inhibition of the LRS-RagD interaction (dose-response curves in ELISA) (LRS-RagD interaction): inhibit the LRS-RagD interaction in a dose-dependent manner
reduction of LRS-RagD interaction by ELISA (LRS-RagD interaction): 15.5%
amount of phospho-T389 S6K1 (mTORC1 [1]; HEK293T cells, 3 h): less than that of 21f
phosphorylation suppression of S6K1 by western blotting (mTORC1 [1]; HEK293T cells, 3 h): 16.4%

SMILES: Cc1cc(C)cc(CN2C[C@H]3CN3Cc3c(N(C)Cc4ccccc4)ncnc32)c1 (stereo partly drawn) [Compound 21f]
dose-dependent inhibition of the LRS-RagD interaction (dose-response curves in ELISA) (LRS-RagD interaction): inhibit the LRS-RagD interaction in a dose-dependent manner
reduction of LRS-RagD interaction by ELISA (LRS-RagD interaction): 30.2%
inhibition degree against phospho-S757 ULK1 (mTORC1 [1]; HEK293T cells, 0-24 h, 21f 10 μM, rapamycin 500 nM): high inhibition degree
Phospho-T389 S6K1, time course (mTORC1 [1]; HEK293T cells, 10 μM, 0-24 h): reduced in cells treated with 21f as time passed
duration of the effect on mTORC1 within cells (mTORC1 [1]; HEK293T cells, 10 μM, 0-24 h): at least 12 h
phospho-S65 4E-BP1, time course (mTORC1 [1]; HEK293T cells, 10 μM, 0-24 h): reduced in cells treated with 21f as time passed
phospho-S757 ULK1, time course (mTORC1 [1]; HEK293T cells, 10 μM, 0-24 h): reduced in cells treated with 21f as time passed
amount of phospho-T389 S6K1 (mTORC1 [1]; HEK293T cells, 3 h): reduced amount of phospho-T389 S6K1
phosphorylation suppression of S6K1 by western blotting (mTORC1 [1]; HEK293T cells, 3 h): 48.9%
Phospho-T389 S6K1 (mTORC1 [1]; [6]): reduced in cells treated with 21f in a dose-dependent manner
phospho-S65 4E-BP1 (mTORC1 [1]; [6]): reduced in cells treated with 21f in a dose-dependent manner
phospho-S757 ULK1 (mTORC1 [1]; [6]): reduced in cells treated with 21f in a dose-dependent manner
phospho-T172 AMPKα, time course (AMPK signaling pathways; HEK293T cells, 10 μM, 0-24 h): no effects
phospho-T172 AMPKα (AMPK signaling pathways; [6]): no effects
phospho-S473 Akt, time course ([2]; HEK293T cells, 10 μM, 0-24 h): no effects
phospho-S473 Akt [2, 6]: no effects
Kd (Human LRS proteins): 4.5 µM
concentration-dependent binding to LRS (SPR) (Human LRS proteins; purified LRS): concentration-dependent binding to LRS
LC3 I/LC3 II ratio [3]: lowering LC3 I/LC3 II ratio
p62 level [3]: stimulated the degradation of p62; also recorded: reducing p62 level
cellular level of LC3 II ([3]; in the presence of Leu): increased the cellular level of LC3 II
mCherry and GFP fluorescence (mCherry-GFP-LC3) (HeLa cells): red fluorescence
cellular division level by BrdU assay (HEK293T cells): suppressed cell proliferation even in the presence of Leu; also recorded: cellular division was inhibited as treatment time passed
western blotting results, procedure of FIG. 15d (mTORC1 [4]): same as those from HEK293T cells
western blotting results, procedure of FIG. 15d (mTORC1 [5]): same as those from HEK293T cells

melting point: 89 to 91 °C
SMILES: C=CCN1C[C@H]2COC(=O)N2Cc2c(N(C)Cc3ccccc3)ncnc21 [Compound 22f]
dose-dependent inhibition of the LRS-RagD interaction (dose-response curves in ELISA) (LRS-RagD interaction): did not inhibit the LRS-RagD interaction in a dose-dependent manner

SMILES: CN(Cc1ccccc1)c1ncnc2c1CN(C(=O)OC(C)(C)C)[C@@H]1C=CCN2C1 [Compound 23f]
dose-dependent inhibition of the LRS-RagD interaction (dose-response curves in ELISA) (LRS-RagD interaction): did not inhibit the LRS-RagD interaction in a dose-dependent manner

SMILES: CO/C1=C\C(C)=C\[C@@H](C)[C@@H](O)[C@@H](C)C/C(C)=C/C=C/[C@H](OC)[C@@H]([C@@H](C)[C@@H](O)[C@H](C)[C@@]2(O)C[C@@H](O)[C@H](C)[C@@H](C(C)C)O2)OC1=O [bafilomycin, reference compound]
LC3 I/LC3 II ratio [3]: increased ratio of LC3 I/LC3 II
p62 level [3]: accumulation of p62
mCherry and GFP fluorescence (mCherry-GFP-LC3) (HeLa cells): yellow color

SMILES: CO[C@H]1C[C@@H]2CC[C@@H](C)[C@@](O)(O2)C(=O)C(=O)N2CCCC[C@H]2C(=O)O[C@H]([C@H](C)C[C@@H]2CC[C@@H](O)[C@H](OC)C2)CC(=O)[C@H](C)/C=C(\C)[C@@H](O)[C@@H](OC)C(=O)[C@H](C)C[C@H](C)/C=C/C=C/C=C/1C [rapamycin, reference compound]
duration of the effect on mTORC1 within cells (mTORC1 [1]; HEK293T cells, 500 nM, 0 to 24 hours): at least 12 hours

Source: patent US11535627B2, “Pyrimidine derivative compound, pharmaceutically acceptable salt thereof, preparation process thereof, and pharmaceutical composition using the same” (Spark Biopharma, Inc., priority 2016, dated 2022)
